Reference: ChEMBL document CHEMBL1121861, “Mammalian metabolism of phencyclidine” (J Med Chem, 1981)

Legend:
Canis familiaris = species on record: Canis familiaris; test: Compound was evaluated for the mean locomotor activity ([…]) by the difference in the counts between postinjection and preinjection activities.; assay type: functional, Canis lupus familiaris
[1] = Half-life determined in the urine of monkey; assay type: ADME; conditions: simiiformes
[2] = Half-life determined in the urine of dog; assay type: ADME, organism-based, Canis lupus familiaris

Structure (SMILES)	Activity (Canis familiaris)	half-life [1] [h]	half-life [2] [h]
COC(=O)CCCCNC1(c2ccccc2)CCCCC1.Cl	-1418	–	–
COC(=O)CCCCNC1(c2ccccc2)CCCCC1.Cl.c1ccc(C2(N3CCCCC3)CCCCC2)cc1	2388	–	–
Cl.O=C(O)CCCCNC1(c2ccccc2)CCCCC1.c1ccc(C2(N3CCCCC3)CCCCC2)cc1	2478	–	–
Cl.c1ccc(C2(N3CCCCC3)CCCCC2)cc1 [PHENCYCLIDINE HYDROCHLORIDE]	3062	2.36	2.86
Cl.O=C(O)CCCCNC1(c2ccccc2)CCCCC1	-1063	–	–
